US9550792B2, “Polycyclic substituted pyrazole kinase activity inhibitors and use thereof” (priority 2013, dated 2017)
Read-outs that look alike come from different tables or passages of the source.

Legend:
Assay type in all cases: biochemical
CDK2/A = target: T1, CDK2/A (Homo sapiens, UniProt P24941); test: Inhibitory activity to CDK2 (FRET); conditions: read-out: CDK2 inhibition % (1 × 10^−6 mol/L)
T1 construct: purchased
Summary of the method: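 FRET-based kinase assay using CDK2/cyclin A with peptide substrate in HEPES pH 7.5 buffer (MgCl2, BRIJ-35, EDTA). The kinase reaction ran 1 h, followed by development reagent for 1 h and a stop step. Inhibition calculated relative to phospho-peptide (100%) and ATP-free (0%) phosphorylation controls.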

Aurora A = target: T2, Aurora A (Homo sapiens, UniProt O14965); test: Inhibitory activity to Aurora A (FRET); conditions: read-out: Aurora A inhibition % (1 × 10^−6 mol/L)
T2 construct: purchased
T2 sequence (O14965 1-403): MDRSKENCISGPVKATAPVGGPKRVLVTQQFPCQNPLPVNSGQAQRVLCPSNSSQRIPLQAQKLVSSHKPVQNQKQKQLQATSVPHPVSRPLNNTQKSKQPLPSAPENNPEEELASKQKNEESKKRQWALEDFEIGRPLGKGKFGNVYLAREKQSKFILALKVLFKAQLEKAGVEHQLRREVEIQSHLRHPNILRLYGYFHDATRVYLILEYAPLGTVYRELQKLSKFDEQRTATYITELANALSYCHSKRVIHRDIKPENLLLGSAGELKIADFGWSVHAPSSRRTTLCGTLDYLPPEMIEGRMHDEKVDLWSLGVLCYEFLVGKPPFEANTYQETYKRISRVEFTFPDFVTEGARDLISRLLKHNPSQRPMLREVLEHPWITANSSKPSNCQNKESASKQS
Summary of the method: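 FRET kinase assay of Aurora A with peptide substrate in HEPES pH 7.5, BRIJ-35, MgCl2, EDTA; 1 h reaction, then 1 h development before stop. Ex 400 nm, emission 445 nm (coumarin) and 520 nm (fluorescein); 0% and 100% phosphorylation controls set inhibition scale.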

CDK1/cyclin A = CDK1/cyclin A (Homo sapiens, UniProt P06493); test: Kinase IC50, 33P labeled isotope method
CDK1/cyclin B = CDK1/cyclin B (Homo sapiens, UniProt P06493); test: Kinase IC50, 33P labeled isotope method
CDK1/cyclin B, sequence (P06493 4-287 limits assumed): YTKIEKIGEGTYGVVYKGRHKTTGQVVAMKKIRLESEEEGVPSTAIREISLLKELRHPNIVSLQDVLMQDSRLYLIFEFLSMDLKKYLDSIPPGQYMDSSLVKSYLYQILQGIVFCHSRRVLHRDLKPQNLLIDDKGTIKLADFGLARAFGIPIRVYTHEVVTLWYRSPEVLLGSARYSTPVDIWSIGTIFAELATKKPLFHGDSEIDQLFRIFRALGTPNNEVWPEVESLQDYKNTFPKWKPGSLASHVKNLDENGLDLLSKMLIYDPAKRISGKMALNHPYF
CDK1/cyclin B, sequence (P14635 whole entry partner): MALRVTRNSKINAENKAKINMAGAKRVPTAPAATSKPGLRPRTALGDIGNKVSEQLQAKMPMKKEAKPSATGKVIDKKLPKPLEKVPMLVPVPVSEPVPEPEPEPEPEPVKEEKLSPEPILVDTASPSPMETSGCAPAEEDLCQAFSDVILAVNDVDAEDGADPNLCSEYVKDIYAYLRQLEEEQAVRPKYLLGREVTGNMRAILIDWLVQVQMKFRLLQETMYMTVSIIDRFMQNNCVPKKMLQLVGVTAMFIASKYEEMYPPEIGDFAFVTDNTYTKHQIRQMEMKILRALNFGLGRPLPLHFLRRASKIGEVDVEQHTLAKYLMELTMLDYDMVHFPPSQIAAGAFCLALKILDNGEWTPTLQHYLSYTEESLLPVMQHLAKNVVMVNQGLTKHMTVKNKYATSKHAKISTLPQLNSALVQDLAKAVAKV

CDK1/cyclin E = CDK1/cyclin E (Homo sapiens, UniProt P06493); test: Kinase IC50, 33P labeled isotope method
CDK1/cyclin E, sequence (P06493 4-287 limits assumed): as the sequence (P06493 4-287 limits assumed) above
CDK1/cyclin E, sequence (P24864 whole entry partner): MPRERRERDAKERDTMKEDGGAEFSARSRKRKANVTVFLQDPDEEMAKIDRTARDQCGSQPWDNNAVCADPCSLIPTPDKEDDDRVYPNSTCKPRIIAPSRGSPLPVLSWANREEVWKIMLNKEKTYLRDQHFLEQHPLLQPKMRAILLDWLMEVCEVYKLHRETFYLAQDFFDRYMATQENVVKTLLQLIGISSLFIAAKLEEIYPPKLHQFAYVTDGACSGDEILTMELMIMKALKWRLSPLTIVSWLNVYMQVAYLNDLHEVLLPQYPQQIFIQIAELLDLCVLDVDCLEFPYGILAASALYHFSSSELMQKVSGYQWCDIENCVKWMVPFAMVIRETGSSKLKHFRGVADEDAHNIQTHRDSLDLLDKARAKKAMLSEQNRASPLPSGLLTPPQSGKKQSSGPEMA

CDK2/cyclin A = CDK2/cyclin A (Homo sapiens, UniProt P24941); test: Kinase IC50, 33P labeled isotope method
CDK2/Cyclin A1 = CDK2/Cyclin A1 (Homo sapiens, UniProt P24941); test: Kinase IC50, 33P labeled isotope method
CDK3/cyclin E = CDK3/cyclin E (Homo sapiens, UniProt Q00526); test: Kinase IC50, 33P labeled isotope method
CDK3/cyclin E, sequence (Q00526 4-286 limits assumed): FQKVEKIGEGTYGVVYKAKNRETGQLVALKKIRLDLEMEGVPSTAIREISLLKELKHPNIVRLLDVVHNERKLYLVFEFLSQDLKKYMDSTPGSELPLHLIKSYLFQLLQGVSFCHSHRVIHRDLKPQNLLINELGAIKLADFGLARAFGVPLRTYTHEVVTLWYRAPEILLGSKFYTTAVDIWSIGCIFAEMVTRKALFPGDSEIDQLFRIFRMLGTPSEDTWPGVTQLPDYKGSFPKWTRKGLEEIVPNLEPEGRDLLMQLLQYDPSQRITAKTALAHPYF
CDK3/cyclin E, sequence (P24864 whole entry partner): as the sequence (P24864 whole entry partner) above

CDK4/cyclin D1 = CDK4/cyclin D1 (Homo sapiens, UniProt P11802); test: Kinase IC50, 33P labeled isotope method
CDK5/p35 = CDK5/p35 (Homo sapiens, UniProt Q00535); test: Kinase IC50, 33P labeled isotope method
CDK5/p35, sequence (Q00535 4-286 limits assumed): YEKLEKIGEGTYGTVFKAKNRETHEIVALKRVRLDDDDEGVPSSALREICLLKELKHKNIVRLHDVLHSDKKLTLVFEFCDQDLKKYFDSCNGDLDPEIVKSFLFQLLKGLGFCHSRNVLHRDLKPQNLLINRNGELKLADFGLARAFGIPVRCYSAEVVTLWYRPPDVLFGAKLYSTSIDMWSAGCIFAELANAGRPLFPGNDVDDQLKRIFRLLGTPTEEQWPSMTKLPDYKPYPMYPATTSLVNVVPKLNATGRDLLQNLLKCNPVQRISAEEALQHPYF
CDK5/p35, sequence (Q15078 whole entry partner): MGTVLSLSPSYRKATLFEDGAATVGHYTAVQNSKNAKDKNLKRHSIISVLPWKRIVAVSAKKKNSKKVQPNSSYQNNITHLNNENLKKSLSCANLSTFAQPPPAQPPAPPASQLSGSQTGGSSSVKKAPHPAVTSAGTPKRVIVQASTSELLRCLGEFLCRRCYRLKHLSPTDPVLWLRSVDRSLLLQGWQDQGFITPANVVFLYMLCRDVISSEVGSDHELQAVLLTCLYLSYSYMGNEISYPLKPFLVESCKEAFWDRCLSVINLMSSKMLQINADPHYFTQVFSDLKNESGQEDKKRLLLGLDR

CDK7/cyclin H = CDK7/cyclin H (Homo sapiens, UniProt P50613); test: Kinase IC50, 33P labeled isotope method
ERK7/MAPK15 = target: T3, ERK7/MAPK15 (Homo sapiens, UniProt Q8TD08); test: Kinase IC50, 33P labeled isotope method
T3 sequence (Q8TD08 13-304 limits assumed): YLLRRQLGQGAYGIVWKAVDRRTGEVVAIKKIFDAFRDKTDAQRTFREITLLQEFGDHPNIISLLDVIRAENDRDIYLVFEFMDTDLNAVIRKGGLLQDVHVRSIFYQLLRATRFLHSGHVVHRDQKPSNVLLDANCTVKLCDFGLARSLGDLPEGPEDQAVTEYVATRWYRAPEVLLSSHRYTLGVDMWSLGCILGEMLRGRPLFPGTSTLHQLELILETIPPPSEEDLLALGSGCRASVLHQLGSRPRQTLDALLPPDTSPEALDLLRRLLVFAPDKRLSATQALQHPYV

FGFR1 = FGFR1 (Homo sapiens, UniProt P11362); test: Kinase IC50, 33P labeled isotope method
FGFR1, sequence (P11362 478-767 limits assumed): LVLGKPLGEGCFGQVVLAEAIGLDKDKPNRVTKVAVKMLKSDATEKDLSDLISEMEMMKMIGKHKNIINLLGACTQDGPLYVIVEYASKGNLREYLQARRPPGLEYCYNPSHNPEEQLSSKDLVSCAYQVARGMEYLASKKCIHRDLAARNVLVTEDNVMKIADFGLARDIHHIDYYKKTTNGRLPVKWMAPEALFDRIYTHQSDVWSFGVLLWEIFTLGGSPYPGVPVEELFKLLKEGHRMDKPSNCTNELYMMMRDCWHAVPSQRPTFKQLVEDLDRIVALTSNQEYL

FGFR2 = FGFR2 (Homo sapiens, UniProt P21802); test: Kinase IC50, 33P labeled isotope method
FGFR2, sequence (P21802 481-770 limits assumed): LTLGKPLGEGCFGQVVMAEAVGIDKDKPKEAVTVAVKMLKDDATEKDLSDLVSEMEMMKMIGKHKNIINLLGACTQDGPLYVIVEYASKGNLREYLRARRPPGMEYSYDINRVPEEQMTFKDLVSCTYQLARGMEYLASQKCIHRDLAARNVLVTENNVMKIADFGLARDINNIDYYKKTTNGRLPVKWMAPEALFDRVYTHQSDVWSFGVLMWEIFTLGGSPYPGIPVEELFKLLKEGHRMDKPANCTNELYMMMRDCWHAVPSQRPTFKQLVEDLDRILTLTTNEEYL

FGFR3 = FGFR3 (Homo sapiens, UniProt P22607); test: Kinase IC50, 33P labeled isotope method; conditions: 20 μM ATP
FGFR3, sequence (P22607 472-761 limits assumed): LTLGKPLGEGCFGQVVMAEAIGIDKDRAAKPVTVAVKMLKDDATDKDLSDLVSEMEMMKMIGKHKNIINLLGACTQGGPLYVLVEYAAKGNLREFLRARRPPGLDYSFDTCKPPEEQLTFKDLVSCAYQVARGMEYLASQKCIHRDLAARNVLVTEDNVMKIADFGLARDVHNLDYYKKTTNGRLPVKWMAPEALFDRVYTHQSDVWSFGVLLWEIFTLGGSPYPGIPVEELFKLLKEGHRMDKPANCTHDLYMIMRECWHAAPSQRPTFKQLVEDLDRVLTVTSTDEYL

FLT1/VEGFR1 = target: T4, FLT1/VEGFR1 (Homo sapiens, UniProt P17948); test: Kinase IC50, 33P labeled isotope method
T4 sequence (P17948 827-1158 limits assumed): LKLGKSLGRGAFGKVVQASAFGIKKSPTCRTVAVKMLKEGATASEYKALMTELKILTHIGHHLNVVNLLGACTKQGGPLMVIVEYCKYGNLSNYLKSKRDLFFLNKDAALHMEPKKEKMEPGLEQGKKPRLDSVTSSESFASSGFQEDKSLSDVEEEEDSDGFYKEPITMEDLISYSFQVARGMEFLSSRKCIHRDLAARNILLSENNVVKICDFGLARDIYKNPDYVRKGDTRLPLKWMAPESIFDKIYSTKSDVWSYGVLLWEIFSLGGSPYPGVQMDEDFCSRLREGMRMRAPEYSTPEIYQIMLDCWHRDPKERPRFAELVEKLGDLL

JAK2 = JAK2 (Homo sapiens, UniProt O60674); test: Kinase IC50, 33P labeled isotope method
JAK2, sequence (O60674 849-1124 limits assumed): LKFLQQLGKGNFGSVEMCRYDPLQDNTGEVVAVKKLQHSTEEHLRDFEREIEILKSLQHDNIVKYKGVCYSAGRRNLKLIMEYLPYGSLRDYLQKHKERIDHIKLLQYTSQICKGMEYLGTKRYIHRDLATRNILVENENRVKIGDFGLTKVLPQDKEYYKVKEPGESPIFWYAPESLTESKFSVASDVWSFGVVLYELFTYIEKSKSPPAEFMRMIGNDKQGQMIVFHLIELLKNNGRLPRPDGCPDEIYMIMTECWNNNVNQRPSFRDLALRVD

JNK1 = JNK1 (Homo sapiens, UniProt P45983); test: Kinase IC50, 33P labeled isotope method
JNK1, sequence (P45983 26-321 limits assumed): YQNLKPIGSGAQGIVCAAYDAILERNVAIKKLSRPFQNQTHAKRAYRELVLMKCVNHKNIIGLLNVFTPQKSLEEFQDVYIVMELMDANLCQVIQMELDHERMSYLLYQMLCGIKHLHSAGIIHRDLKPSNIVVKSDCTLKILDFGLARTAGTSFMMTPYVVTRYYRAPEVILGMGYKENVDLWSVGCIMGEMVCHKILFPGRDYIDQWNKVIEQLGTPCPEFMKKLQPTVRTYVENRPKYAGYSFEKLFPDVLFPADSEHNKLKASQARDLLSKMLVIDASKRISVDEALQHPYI

JNK2 = JNK2 (Homo sapiens, UniProt P45984); test: Kinase IC50, 33P labeled isotope method
JNK2, sequence (P45984 26-321 limits assumed): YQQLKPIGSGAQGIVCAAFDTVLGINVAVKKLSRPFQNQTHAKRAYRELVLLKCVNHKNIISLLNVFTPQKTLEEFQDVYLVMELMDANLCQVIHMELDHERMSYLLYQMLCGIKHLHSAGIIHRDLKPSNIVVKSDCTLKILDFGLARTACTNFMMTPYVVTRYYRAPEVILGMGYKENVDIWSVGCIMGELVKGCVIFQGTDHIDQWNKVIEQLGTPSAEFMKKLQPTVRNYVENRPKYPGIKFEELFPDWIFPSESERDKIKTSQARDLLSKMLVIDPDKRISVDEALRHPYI

KDR/VEGFR2 = KDR/VEGFR2 (Homo sapiens, UniProt P35968); test: Kinase IC50, 33P labeled isotope method
KDR/VEGFR2, sequence (P35968 834-1162 limits assumed): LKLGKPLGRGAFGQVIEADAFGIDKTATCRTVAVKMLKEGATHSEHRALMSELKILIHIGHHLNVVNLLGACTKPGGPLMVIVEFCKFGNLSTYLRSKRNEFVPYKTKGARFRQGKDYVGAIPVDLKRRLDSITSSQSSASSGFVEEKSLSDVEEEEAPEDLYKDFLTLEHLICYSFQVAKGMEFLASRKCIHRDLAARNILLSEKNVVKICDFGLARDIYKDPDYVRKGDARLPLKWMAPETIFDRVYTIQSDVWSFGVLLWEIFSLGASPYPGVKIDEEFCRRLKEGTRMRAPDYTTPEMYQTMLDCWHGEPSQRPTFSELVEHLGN

[1] = 20 μM ATP, read-out: IC50* CDK1/cyclin B
[2] = 20 μM ATP, read-out: IC50* CDK1/cyclin E
[3] = 20 μM ATP, read-out: IC50* CDK5/p35
[4] = 20 μM ATP, read-out: IC50* CDK7/cyclin H
[5] = 20 μM ATP, read-out: IC50* FGFR1
[6] = 20 μM ATP, read-out: IC50* FGFR2
[7] = 20 μM ATP, read-out: IC50* JAK2
[8] = 20 μM ATP, read-out: IC50* JNK1
[9] = 20 μM ATP, read-out: IC50* JNK2
[10] = 20 μM ATP, read-out: IC50* CDK1/cyclin A
[11] = 20 μM ATP, read-out: IC50* CDK2/cyclin A
[12] = 20 μM ATP, read-out: IC50* CDK2/Cyclin A1
[13] = 20 μM ATP, read-out: IC50* CDK3/cyclin E
[14] = 20 μM ATP, read-out: IC50* CDK4/cyclin D1
[15] = 20 μM ATP, read-out: IC50* ERK7/MAPK15
[16] = 20 μM ATP, read-out: IC50* FLT1/VEGFR1
[17] = 20 μM ATP, read-out: IC50* KDR/VEGFR2

SMILES | inhibition at 1 µM (CDK2/A) [%] | inhibition at 1 µM (Aurora A) [%] | IC50 (CDK1/cyclin B; [1]) [nM] | IC50 (CDK1/cyclin E; [2]) [nM] | IC50 (CDK5/p35; [3]) [nM] | IC50 (CDK7/cyclin H; [4]) [nM] | IC50 (FGFR1; [5]) [nM] | IC50 (FGFR2; [6]) [nM] | IC50 (FGFR3) [nM] | IC50 (JAK2; [7]) [nM] | IC50 (JNK1; [8]) [nM] | IC50 (JNK2; [9]) [nM] | IC50 (CDK1/cyclin A; [10]) [nM] | IC50 (CDK2/cyclin A; [11]) [nM] | IC50 (CDK2/Cyclin A1; [12]) [nM] | IC50 (CDK3/cyclin E; [13]) [nM] | IC50 (CDK4/cyclin D1; [14]) [nM] | IC50 (ERK7/MAPK15; [15]) [nM] | IC50 (FLT1/VEGFR1; [16]) [nM] | IC50 (KDR/VEGFR2; [17]) [nM] | also measured
CN1CCN(Cc2ccc(NC(=O)c3n[nH]cc3Nc3ncnc4sccc34)cc2)CC1 [Compound I-1, 4-(4-thieno[2,3-d]pyrimidinylamino)-N-(4-((4-methyl-1-piperazinyl)methyl)phenyl)-1H-3-pyrazole carboxamide] | 70.9 | 67.9 | 87 | 96 | 15 | 522 | 304 | 233 | 807 | 795 | ≥ 1000 | ≥ 1000 |  |  |  |  |  |  |  |  | IC50 (CDK1/cyclin A): 157 nM; IC50 (CDK2/cyclin A): 15 nM; IC50 (CDK2/Cyclin A1): 9 nM; IC50 (CDK3/cyclin E): 190 nM; IC50 (CDK4/cyclin D1): 6 nM; IC50 (ERK7/MAPK15): 7 nM; IC50 (FLT1/VEGFR1): 20 nM; IC50 (KDR/VEGFR2): 35 nM
O=C(Nc1ccc(CN2CCOCC2)cc1)c1n[nH]cc1Nc1ncnc2sccc12 [Compound I-2, 4-(4-thieno[2,3-d]pyrimidinylamino)-N-(4-((4-morpholinyl)methyl)phenyl)-1H-3-pyrazolecarboxamide] | 46.6 | 52.2 |  |  |  |  |  |  |  |  |  |  |  |  |  |  |  |  |  |  | 
Cc1cc2c(Nc3c[nH]nc3C(=O)Nc3ccc(CN4CCN(C)CC4)cc3)ncnc2s1 [Compound I-3, 4-(4-(6-methylthieno[2,3-d]pyrimidinyl)amino)-N-(4-((4-methyl-1-piperazinyl)methyl)phenyl)-1H-3-pyrazolecarboxamide] | 62.5 | 75.2 | 79 | 87 | 13 | 495 | 274 | 210 | 723 | 716 | 1130 | 1170 | 142 | 14 | 9 | 171 | 6 | 7 | 19 | 33 | 
CN1CCN(Cc2ccc(NC(=O)c3n[nH]cc3Nc3ncnc4[nH]ccc34)cc2)CC1 [Compound I-11, 4-(4-(7H-pyrrolo[2,3-d]pyrimidinyl)amino)-N-(4-((4-methyl-1-piperazinyl)methyl)phenyl)-1H-3-pyrazolecarboxamide] | 67.9 | 64.3 |  |  |  |  |  |  | 657 |  |  |  |  |  |  |  |  |  |  |  | IC50 (CDK1/cyclin A): 128 nM; IC50 (CDK1/cyclin B): 71 nM; IC50 (CDK1/cyclin E): 78 nM; IC50 (CDK2/cyclin A): 13 nM; IC50 (CDK2/Cyclin A1): 8 nM; IC50 (CDK3/cyclin E): 155 nM; IC50 (CDK4/cyclin D1): 6 nM; IC50 (CDK5/p35): 12 nM; IC50 (CDK7/cyclin H): 471 nM; IC50 (ERK7/MAPK15): 7 nM; IC50 (FGFR1): 247 nM; IC50 (FGFR2): 189 nM; IC50 (FLT1/VEGFR1): 19 nM; IC50 (JAK2): 644 nM; IC50 (JNK1): 1240 nM; IC50 (JNK2): 1320 nM; IC50 (KDR/VEGFR2): 31 nM
Cc1cc2c(Nc3c[nH]nc3C(=O)Nc3ccc(CN4CCN(C)CC4)cc3)ncnc2[nH]1 [Compound I-13, 4-(4-(6-methyl-7H-pyrrolo[2,3-d]pyrimidinyl)amino)-N-(4-((4-methyl-1-piperazinyl)methyl)phenyl)-1H-3-pyrazolecarboxamide] | 67 | 60.8 | 88 | 97 | 15 | 583 | 305 | 234 | 811 | 795 | 1550 | 1650 | 158 | 15 | 10 | 191 | 8 | 8 | 23 | 39 | 
CN1CCN(Cc2ccc(NC(=O)c3n[nH]cc3Nc3ncnc4occc34)cc2)CC1 [Compound I-21, 4-(4-furo[2,3-d]pyrimidinylamino)-N-(4-((4-methyl-1-piperazinyl)methyl)phenyl)-1H-3-pyrazolecarboxamide] | 66 | 60.8 | 96 | 106 | 16 | 611 | 335 | 257 | 890 | 875 | 1430 | 1490 | 173 | 17 | 11 | 210 | 7 | 8 | 24 | 41 | 
Cc1cc2c(Nc3c[nH]nc3C(=O)Nc3ccc(CN4CCN(C)CC4)cc3)nccc2s1 [Compound I-27, 4-(4-(2-methylthieno[3,2-c]pyridyl)amino)-N-(4-((4-methyl-1-piperazinyl)methyl)phenyl)-1H-3-pyrazolecarboxamide] | 72.6 | 67.8 | 91 | 100 | 15 | 575 | 316 | 242 | 841 | 826 | 1330 | 1380 | 164 | 16 | 10 | 198 | 7 | 8 | 22 | 38 | 
